Reference: BindingDB's records for patent US12384772 (Vivoryon Therapeutics, 2025)

How the values were obtained:
[1] = target: T1, Glutaminyl-peptide cyclotransferase (Homo sapiens, UniProt Q16769); test: Inhibition Assay (pH 6)
Procedure: (§1) 10 mM compound stock solutions were prepared in DMSO. For IC50 determination compound stocks were serially diluted (1:3) in DMSO.All measurements were performed with an EnSpire Perkin Elmer multimode reader using glutaminyl-7-amino-4-methylcoumarin (H-Gin-AMC) as substrate and recombinant pyroglutamyl aminopeptidase (pGAP) as auxiliary enzyme. Reactions were carried out at ambient temperature in black 96-well half area microplates. Each sample consisted of 1 μl test compound solution or solvent (DMSO) and 49 μl QC appropriately diluted in assay buffer (50 mM Tris/HCl, pH 8.0 or 50 mM MES buffer, pH=6.0). After a 10 min preincubation at ambient temperature the enzyme reaction was started by adding 50 μl of Gln-AMC-substrate/pGAP mixture in assay buffer. Final substrate concentrations were 50 and 200 μM for measurement at pH 8.0 or 6.0, respectively. Release of flourogenic AMC were recorded at excitation/emission wavelengths of 380/460 nm. Initial velocity of the enzyme reaction was calculated by linear regression of the first 10 data points using the Enspire Manager software. Final evaluation and calculation of IC50s were performed using GraphPad Prism software.

[2] = target: T1, Glutaminyl-peptide cyclotransferase; test: Inhibition Assay (pH 8.0)
Procedure: as §1

T1 sequence (Q16769 whole entry): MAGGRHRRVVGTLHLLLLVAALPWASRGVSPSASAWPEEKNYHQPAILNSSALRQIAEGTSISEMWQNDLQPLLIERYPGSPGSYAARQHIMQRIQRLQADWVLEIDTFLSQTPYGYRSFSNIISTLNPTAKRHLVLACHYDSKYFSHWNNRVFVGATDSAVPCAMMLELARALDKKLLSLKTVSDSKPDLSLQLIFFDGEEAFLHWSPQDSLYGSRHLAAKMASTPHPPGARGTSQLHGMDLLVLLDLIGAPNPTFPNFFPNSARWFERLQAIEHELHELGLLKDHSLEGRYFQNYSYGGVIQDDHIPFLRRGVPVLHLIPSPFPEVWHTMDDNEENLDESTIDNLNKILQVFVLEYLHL

- Ki [1]: 8.05 µM
- Ki [2]: 5.18 µM
SMILES: CS(=O)(=NCc1ccc2[nH]cnc2c1)c1ccc(F)cc1 (configuration not stated) [US12384772, Compound 1285]
